# T1: Human NPR-B (Homo sapiens, UniProt P20594)
# T1 construct: purchased R&D system
# T1 sequence (P20594 23-458 limits assumed): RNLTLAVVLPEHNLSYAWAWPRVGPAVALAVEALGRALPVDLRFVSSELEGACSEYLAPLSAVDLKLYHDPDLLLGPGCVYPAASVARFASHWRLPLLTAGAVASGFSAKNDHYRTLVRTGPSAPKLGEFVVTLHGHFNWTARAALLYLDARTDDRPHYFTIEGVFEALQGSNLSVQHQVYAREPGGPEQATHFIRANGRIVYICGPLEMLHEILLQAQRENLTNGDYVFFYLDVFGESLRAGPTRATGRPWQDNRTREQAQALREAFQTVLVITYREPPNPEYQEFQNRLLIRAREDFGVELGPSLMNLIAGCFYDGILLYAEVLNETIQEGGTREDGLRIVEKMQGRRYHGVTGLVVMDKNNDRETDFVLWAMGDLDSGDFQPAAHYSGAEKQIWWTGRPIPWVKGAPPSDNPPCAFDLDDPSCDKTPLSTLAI
# T2: NPR-B on NIH/3T3 cells (NPR-B receptor positive cell line) (UniProt Q6VVW5 17-1047, limits assumed)
# T2 sequence (looked up): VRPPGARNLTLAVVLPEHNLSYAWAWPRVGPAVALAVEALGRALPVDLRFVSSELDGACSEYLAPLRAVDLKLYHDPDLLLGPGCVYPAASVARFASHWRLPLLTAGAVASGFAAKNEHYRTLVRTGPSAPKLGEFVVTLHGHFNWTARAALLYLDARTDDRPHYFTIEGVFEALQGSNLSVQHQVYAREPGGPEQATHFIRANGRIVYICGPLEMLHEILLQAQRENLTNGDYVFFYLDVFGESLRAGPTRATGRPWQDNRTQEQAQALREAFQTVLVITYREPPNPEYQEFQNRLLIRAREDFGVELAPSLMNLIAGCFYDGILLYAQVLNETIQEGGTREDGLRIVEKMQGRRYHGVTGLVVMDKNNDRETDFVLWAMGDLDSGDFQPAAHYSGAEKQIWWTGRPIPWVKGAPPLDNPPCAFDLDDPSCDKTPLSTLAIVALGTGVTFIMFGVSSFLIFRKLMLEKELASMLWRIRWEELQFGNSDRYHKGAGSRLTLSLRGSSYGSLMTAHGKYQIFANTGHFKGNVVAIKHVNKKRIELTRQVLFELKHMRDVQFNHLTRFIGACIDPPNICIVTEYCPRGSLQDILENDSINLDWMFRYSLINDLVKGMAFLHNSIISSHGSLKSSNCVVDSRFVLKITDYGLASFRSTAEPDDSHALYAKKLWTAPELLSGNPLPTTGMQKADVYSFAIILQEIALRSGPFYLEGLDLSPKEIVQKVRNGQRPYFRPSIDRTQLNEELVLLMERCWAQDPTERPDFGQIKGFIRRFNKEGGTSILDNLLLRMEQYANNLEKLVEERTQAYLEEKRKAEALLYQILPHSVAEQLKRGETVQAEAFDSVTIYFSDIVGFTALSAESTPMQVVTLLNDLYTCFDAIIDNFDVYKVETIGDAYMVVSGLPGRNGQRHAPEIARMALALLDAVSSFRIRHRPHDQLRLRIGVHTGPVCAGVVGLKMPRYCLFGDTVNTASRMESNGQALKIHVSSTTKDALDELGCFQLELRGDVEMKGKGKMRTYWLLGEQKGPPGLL
# T3: Human NPR-B (R&D system) (human, UniProt P20594 23-458, limits assumed)
# T3 construct: Bought protein immobilised on the Biacore chip; also called NBR-B; natriuretic peptide receptor B
# T3 sequence (looked up): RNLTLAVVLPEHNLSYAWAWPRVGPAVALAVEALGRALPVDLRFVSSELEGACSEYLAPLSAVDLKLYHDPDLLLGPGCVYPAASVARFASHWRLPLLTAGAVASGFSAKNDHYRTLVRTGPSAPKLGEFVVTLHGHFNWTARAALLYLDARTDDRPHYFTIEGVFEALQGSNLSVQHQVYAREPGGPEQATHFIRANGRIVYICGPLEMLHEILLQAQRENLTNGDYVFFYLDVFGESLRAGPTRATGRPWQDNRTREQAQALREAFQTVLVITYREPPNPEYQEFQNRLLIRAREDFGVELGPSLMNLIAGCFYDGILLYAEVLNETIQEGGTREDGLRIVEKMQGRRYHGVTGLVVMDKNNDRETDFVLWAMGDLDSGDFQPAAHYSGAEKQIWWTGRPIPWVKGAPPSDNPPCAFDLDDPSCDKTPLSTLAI
# Columns and labels:
# Human NPR-B = target: T1, Human NPR-B; assay: Biacore SPR kinetic affinity binding to immobilized NPR-B
# Description: The biological function of these purified protein was assayed for their stimulation of production of cGMP, using NPR-B receptor positive cell line, NIH/3T3 and NPR-B negative cell line HEK293 cells. The determination of cGMP was assay by ELISA using commercial CNP as standard curves. […] Surface preparation. NBR-B was immobilized at different levels in three flow cells via standard amine coupling, leaving Fc 1 unmodified to serve as a reference. All surface plasmon resonance (SPR) analysis was performed on a BIAcore 3000 system using series CM5 sensor chips. Data processing and analysis were performed using BIAevaluation software. All sensorgrams were double referenced by subtracting the response on a reference flow cell and a blank sample. Human NPR-B (R&D system) was covalently attached to a CM5 chip via amine coupling. A surface density of 6600 RU was used for measurements with natriuretic peptides Sequential injections of CNP (0.5-8 nM) were performed at a flow rate of […] (300 s for each), followed by a dissociation time of 900 s. […] Kinetic parameters were calculated assuming a simple 1:1 (Langmuir) binding. […] All SPR analysis was performed on a BIAcore 3000 system using series CM5 sensor chips. Data processing and analysis were performed using BIAevaluation software. All sensorgrams were double referenced by subtracting the response on a reference flow cell and a blank sample. Human NPR-B (R&D system) was covalently attached to a CM5 chip via amine coupling. A surface density of 3100 RU was used for measurements with natriuretic peptides Sequential injections of AMI263 (FC4-CNP) (0.125-2 nM) were performed at a flow rate of […] (300 s for each), followed by a dissociation time of 900 s. […] Kinetic parameters were calculated assuming a simple 1:1 (Langmuir) binding. […] All SPR analysis was performed on a BIAcore 3000 system using series CM5 sensor chips. Data processing and analysis were performed using BIAevaluation software. All sensorgrams were double referenced by subtracting the response on a reference flow cell and a blank sample. Human NPR-B (R&D system) was covalently attached to a CM5 chip via amine coupling. […] Kinetic parameters were calculated assuming a simple 1:1 (Langmuir) binding. […] All SPR analysis was performed on a BIAcore 3000 system using series CM5 sensor chips. Data processing and analysis were performed using BIAevaluation software. All sensorgrams were double referenced by subtracting the response on a reference flow cell and a blank sample. Human NPR-B (R&D system) was covalently attached to a CM5 chip via amine coupling. A surface density of 3100 RU was used for measurements with natriuretic peptides Sequential injections of AMI263 (FC4-CNP) (0.5-300 nM) were performed at a flow rate of […] (300 s for each), followed by a dissociation time of 900 s. […] Kinetic parameters were calculated assuming a simple 1:1 (Langmuir) binding. […] All SPR analysis was performed on a BIAcore 3000 system using series CM5 sensor chips. Data processing and analysis were performed using BIAevaluation software. All sensorgrams were double referenced by subtracting the response on a reference flow cell and a blank sample. Human NPR-B (R&D system) was covalently attached to a CM5 chip via amine coupling.
# [1] = background statement; cited from earlier work
# [2] = system: NIH3T3 cells (cGMP secreted); assay: EC50 for CNP-Fc constructs, cGMP ELISA of NIH3T3 supernatant; format: cell-based; details: NIH3T3, 30 minutes, 1.8 mM IBMX, cGMP secreted by the cells; FIG. 25B
# Description: EC50 for CNP-Fc described herein were measured by ELISA. 2.5E+05 NIH3T3 cells/well were plated. […] After 30 minutes, supernatant was collected for cGMP determined via ELISA. FIG. 25A illustrates a standard curve of cGMP.
# [3] = target: T2, NPR-B on NIH/3T3 cells (NPR-B receptor …); assay: cell-based or functional assay
# Human NPR-B (R&D system) [4] = target: T3, Human NPR-B (R&D system); assay: SPR (Biacore 3000), human NPR-B amine-coupled to CM5 chip, single-cycle kinetics, 1:1 Langmuir fit
# Description: Kinetic parameters were calculated assuming a simple 1:1 (Langmuir) binding. […] All SPR analysis was performed on a BIAcore 3000 system using series CM5 sensor chips. Data processing and analysis were performed using BIAevaluation software. All sensorgrams were double referenced by subtracting the response on a reference flow cell and a blank sample. Human NPR-B (R&D system) was covalently attached to a CM5 chip via amine coupling. […] Kinetic parameters were calculated assuming a simple 1:1 (Langmuir) binding. […] All SPR analysis was performed on a BIAcore 3000 system using series CM5 sensor chips. Data processing and analysis were performed using BIAevaluation software. All sensorgrams were double referenced by subtracting the response on a reference flow cell and a blank sample. Human NPR-B (R&D system) was covalently attached to a CM5 chip via amine coupling. […] Kinetic parameters were calculated assuming a simple 1:1 (Langmuir) binding. […] All SPR analysis was performed on a BIAcore 3000 system using series CM5 sensor chips. Data processing and analysis were performed using BIAevaluation software. All sensorgrams were double referenced by subtracting the response on a reference flow cell and a blank sample. Human NPR-B (R&D system) was covalently attached to a CM5 chip via amine coupling.
# Human NPR-B (R&D system) [5] = target: T3, Human NPR-B (R&D system); assay: SPR (Biacore 3000), FIG. 7C, single-cycle kinetics, NPR-B at 6600 RU on CM5, CNP 0.5-8 nM; differs from Table 32
# Description: Kinetic parameters were calculated assuming a simple 1:1 (Langmuir) binding. […] All SPR analysis was performed on a BIAcore 3000 system using series CM5 sensor chips. Data processing and analysis were performed using BIAevaluation software. All sensorgrams were double referenced by subtracting the response on a reference flow cell and a blank sample. Human NPR-B (R&D system) was covalently attached to a CM5 chip via amine coupling. […] Kinetic parameters were calculated assuming a simple 1:1 (Langmuir) binding. […] All SPR analysis was performed on a BIAcore 3000 system using series CM5 sensor chips. Data processing and analysis were performed using BIAevaluation software. All sensorgrams were double referenced by subtracting the response on a reference flow cell and a blank sample. Human NPR-B (R&D system) was covalently attached to a CM5 chip via amine coupling. […] Kinetic parameters were calculated assuming a simple 1:1 (Langmuir) binding. […] All SPR analysis was performed on a BIAcore 3000 system using series CM5 sensor chips.
# [6] = target: T2, NPR-B on NIH/3T3 cells (NPR-B receptor …); assay: cell-based or functional assay; remark: listed apart in the source
Molecule,ka (Human NPR-B; (FIG. 7C-7I)),kd (Human NPR-B; (FIG. 7C-7I)),ka (Human NPR-B; Table 32 summary of affinity),kd (Human NPR-B; Table 32 summary of affinity),half-life [1],EC50 values (rank order) [2],"EC50 (cGMP production, table 'EC50 NIH3T3 cells', row CNP-22) [3] [nM]",Kd (Human NPR-B (R&D system) [4]) [nM],Kd (Human NPR-B (R&D system) [5]) [nM],kon (Human NPR-B (R&D system) [5]) [M⁻¹ s⁻¹],"EC50 (cGMP production, drawn table, row CNP-22) [6] [nM]","EC50 (read off the curve), cGMP production [6] [nM]"
"CC[C@H](C)[C@@H]1NC(=O)[C@H](CCCNC(=N)N)NC(=O)[C@H](CC(=O)O)NC(=O)[C@H](CC(C)C)NC(=O)[C@H](CCCCN)NC(=O)[C@H](CC(C)C)NC(=O)CNC(=O)[C@H](Cc2ccccc2)NC(=O)[C@@H](NC(=O)CNC(=O)[C@H](CCCCN)NC(=O)[C@H](CO)NC(=O)[C@H](CC(C)C)NC(=O)CN)CSSC[C@@H](C(=O)O)NC(=O)CNC(=O)[C@H](CC(C)C)NC(=O)CNC(=O)[C@H](CO)NC(=O)[C@H](CCSC)NC(=O)[C@H](CO)NC(=O)CNC1=O [CNP-22, reference compound]",1.31e7,4.74E-4,1.37E+07,4.74E−04,only a few minutes,CNP-22 ≡Fc4-CNP36>Aflibercept-Fc4-CNP36>Fc1-CNP36>>Fc4-CNP22,,,,,,
GLSKGCFGLKLDRIGSMSGLGC (also called C-type natriuretic peptide) [CNP-22],,,,,,,11.8,0.0346,0.0363,1.31e+07,11.8,~10
